The text below walks through data of patent US5411969A, “Antihyperlipidemic/antioxidant dihydroquinolines” (Bristol-Myers Squibb Company, priority 1993, dated 1995).

One data set deals with LDL. The data set can be described thus: In vitro LDL oxidation (Cu++), conjugated diene formation. It is filed as biochemical, rabbit. The note with it: for LDL Oxd. Inhib. mean lag ratio: 10 μM, rabbit plasma LDL, Cu++, treated/control lag time.
For the next data set, the system named is hamster LDL. As to the kind of experiment: Ex vivo LDL lipid peroxidation assay in hamsters (Cu++ oxidation; conjugated dienes or lipid peroxides). The note with it: 17 days; for Conj. Dienes lag ratio: treated/control.
Data set [1] has as its system HMG-CoA reductase. The data set can be described thus: In vivo evaluation in normocholesterolemic chickens: specific activity of HMG-CoA reductase. Also noted: species or system chicken. The note with it: male chickens, orally dosed for 4 weeks at 4 mg/kg/day. Here is the method:
(§1) Hypocholesterolemic activity was evaluated for representative compounds of the present invention using γ-tocotrienol as a control in normocholesterolemic chickens. Newborn male chicks (6-10 for each group) were raised on a standard corn-soybean-based control diet for two weeks and then were switched to either control or experimental diets for four weeks. Drug treatment consisted of the addition of test compound to the corn-soybean-based. At the end of the feeding period, all the birds were fasted (about 36 hours) and refed (about 48 hours) to induce cholesterolgenic enzymes prior to sacrifice. The specific activity of HMG-CoA reductase, total serum cholesterol levels, and HDL/LDL cholesterol pools were examined (Table II).
(§2) Effects of Compounds of the present invention on Lipid
(§3) Parameters in Male Chickens
(§4) Orally dosed for 4-weeks at 4 mg/kg/day

A short description of data set [2]: Redox potential by cyclic voltammetry. The data set is classed as physicochemical. The note with it: for Oxd. Potential: cyclic voltammetry. From the text:
One method for the measurement of general antioxidant capacity is stopped-flow kinetic analysis. (Mukai, et al., Bull. Chem. Soc. Jpn., 59: 3113-3116 (1986); Mukai, et al., J. Org. Chem., 54: 557-560 (1989); Mukai, et al. J. Org. Chem., 53: 430-432 (1988)). This is a sophisticated setup wherein, one measures radical transfer from a stable radical, (for example 2,6-di-tert-butyl-4-(4-methoxyphenyl)phenoxy), to a test compound spectrophotometrically as a function of time. […] (Mukai, et al., Bull. Chem. Soc. Jpn., 59: 3113-3116 (1986); Mukai, et al., J. Org. Chem., 54: 557-560 (1989); Mukai, et al. J. Org. Chem., 53: 430-432 (1988)). Voltammetry has been used by Moldeus et al. to study the antioxidant capacity of structurally related dibenzo[1,4]dichalcogenines as inhibitors of lipid peroxidation. (Cotgreave, et al., Biochem. Pharm., 42: 1481-85 (1991)). In their case, a strong correlation between voltammetric potential and the ability to inhibit lipid peroxidation was observed.
(Mukai, et al., J. Org. Chem., 53: 430-432 (1988); Mukai, et al., J. Org. Chem., 54: 552-556 (1989); Mukai, et al., J. Org. Chem., 56: 4188-4192 (1991)).

Data set [3] can be described thus: In vivo hypocholesterolemic activity in normocholesterolemic chickens: total serum cholesterol and HDL/LDL cholesterol pools. Further details: species or system chicken. The note with it: male chickens, orally dosed for 4 weeks at 4 mg/kg/day. The method, then: as §1, §2, §3, §4
Data set [4] relates to HMG-CoA reductase. As to the kind of experiment: HepG2 cell culture model: HMG-CoA reductase suppression (specific activity, microsomal fraction). The data set is classed as cell-based, human. The note with it: 10 μM, 4 h incubation, HepG2 cells. The method, then: (§5) The human hepatoma HepG2 cell culture model was employed to compare the intrinsic activities of the representative compounds of the present invention relative to the tocotrienols. HepG2 cells were incubated with the indicated compounds for 4 hours at 10 μM. Cholesterol synthesis was assayed by ^14 C-acetate incorporation over the final hour of incubation, and HMG-CoA reductase suppression (specific activity) was assayed in the microsomal fraction isolated from parallel cultures at the end of the 4 hour incubation.

Data set [5] concerns human hepatoma HepG2 cells. As to the kind of experiment: HepG2 cell culture model: cholesterol synthesis by 14C-acetate incorporation. The data set is classed as cell-based. The note with it: 4 h incubation, read-out: Cholesterol Biosynthesis. The method, then:
as §5

A further data set relates to cholesterol fed rabbits. The note with it: cited from earlier work.
For data set [6] the following is noted: in vivo; cited from earlier work.

Protocol for hamster LDL: As a secondary screen, test compounds are evaluated ex vivo for their oral effectiveness to inhibit LDL oxidation. […] Again, the conjugated diene assay is used to assess lipid peroxidation.
Hamsters (n=6 per group) were placed on an atherogenic diet (0.4% cholesterol+10% vitamin E stripped corn oil), and were orally dosed for 17 days with the indicated compounds at 75 mpk/day. The resistance of hamster LDL to copper-dependent oxidation in vitro was determined by conjugated dienes or lipid peroxides.

With `Cc1cc(C(C)(C)C)c(O)c(C(C)(C)C)c1` [Butylatedhydroxytoluene], the “LDL Oxd. Inhib. mean lag ratio” value in the data set on LDL worked out at 1.38.

`CC(C)=CCC/C(C)=C/CC/C(C)=C/CCCOc1ccc2c(c1)C(C)=CC(C)(C)N2` [Compound 4, 1,2-Dihydro-2,2,4-Trimethyl-6-[(5,9,13-Trimethyl-4(E),8(E),1 2-tetradecatrienyl)oxy]Quinoline]: in the data set on hamster LDL (50 mg/kg/d oral), the “lipid peroxide formation in LDL, % of Control, 1.5 h” value was 3 % of Control; the “lipid peroxide formation in LDL, % of Control, 3.0 h” value is listed as 31 % of Control; the “Conj. Dienes lag ratio” value is given as 1.57. For the same molecule, the HMGR with HMG-CoA reductase [1] was 83.8 % of Control. Further, the “Oxd. Potential” value in [2] amounted to 0.47 Volts. Further, the “oxidation potential compared with standard reference agents” value in data set [2] (over standard reference agents, in words) was “lower oxidation potential”. In addition, in data set [3], the HDL-C is reported as 89.0 % of Control, the LDL-C was 45.3 % of Control and the Tot.-C is listed as 65.9 % of Control. The “HMGR Suppression” value in the data set with HMG-CoA reductase [4] is 40% of Control. The “LDL Oxd. Inhib. mean lag ratio” value in the data set on LDL stood at 1.80. Besides, the “LDL protective capacity compared with standard reference agents” value in the data set on LDL (in vitro and ex vivo (Tables III, IV), in words) is listed as “superior LDL protective capacity”. In addition, the activity at 10 µM in [5] came out at 48%.

For `CC(C)=CCC/C(C)=C/CC/C(C)=C/CCCSc1ccc2c(c1)C(C)=CC(C)(C)N2` [Compound 8, 1,2-Dihydro-2,2,4-Trimethyl-6-[(5,9,13-Trimethyl-4(E),8(E),1 2-tetradecatrienyl)thio]Quinoline], the “Oxd. Potential” value in data set [2] is listed as 1.20 Volts. In addition, in data set [3], the HDL-C is given as 98.2 % of Control, the LDL-C is 99.1 % of Control and the Tot.-C is 100.9 % of Control. In the data set with LDL, the “LDL Oxd. Inhib. mean lag ratio” value came out at 1.64. Further, the activity at 10 µM in [5] stood at 3%.

Turning to `CC(C)=CCC/C(C)=C/CC/C(C)=C/CCCCc1ccc2c(c1)C(C)=CC(C)(C)N2` [Compound 11, 1,2-Dihydro-2,2,4-Trimethyl-6-[6,10,14-Trimethyl-5(E),9(E), 13-Pentadecatrienyl]Quinoline], the activity at 10 µM in data set [5] is 89%.

In the case of `CC1=CC(C)(C)Nc2ccc(OCCC/C=C(\C)CCc3cccc(C(F)(F)F)c3)cc21` [Compound 18], the HMGR in the data set on HMG-CoA reductase [1] is 66.4 % of Control. Moreover, in [3], the HDL-C is recorded as 93.8 % of Control, the LDL-C is listed as 26.0 % of Control and the Tot.-C is listed as 61.2 % of Control. Further, in [5], the activity at 10 µM is 42%.

`CCOc1ccc2c(c1)C(C)=CC(C)(C)N2` [ETHOXYQUIN]: in the data set with hamster LDL (75 mg/kg/d oral), the “lipid peroxide formation in LDL, % of Control, 1.5 h” value is recorded as 0 % of Control; the “lipid peroxide formation in LDL, % of Control, 3.0 h” value was 13 % of Control; the “Conj. Dienes lag ratio” value is on record as 1.81. In addition, in the data set on LDL, the “LDL Oxd. Inhib. mean lag ratio” value is 1.21.

As for `CC1(C)C=C(CS(=O)(=O)O)c2cc(Cc3ccc4c(c3)C(CS(=O)(=O)O)=CC(C)(C)N4)ccc2N1` [MTDQ-DA], the “effects on various lipid parameters” value in the data set on cholesterol fed rabbits (cholesterol fed rabbits) is recorded as “fairly modest effects on various lipid parameters”. Besides, the plaque progression entry in the data set on cholesterol fed rabbits (relative to the cholesterol fed rabbit controls) was “completely inhibited plaque progression”.

With `O=C1O[C@H]([C@@H](O)CO)C(O)=C1O` [Na Ascorbate], in the data set with hamster LDL (50 mg/kg/d oral), the “lipid peroxide formation in LDL, % of Control, 1.5 h” value is 8 % of Control; the “lipid peroxide formation in LDL, % of Control, 3.0 h” value was 91 % of Control; the “Conj. Dienes lag ratio” value was 1.33.

Take `CC(C)(Sc1cc(C(C)(C)C)c(O)c(C(C)(C)C)c1)Sc1cc(C(C)(C)C)c(O)c(C(C)(C)C)c1` [PROBUCOL, 4,4'-[(1-methylethylidene)bis(thio)]-bis[2,6-bis(1,1-dimethylethyl)]]: in the data set with hamster LDL (50 mg/kg/d oral), the “lipid peroxide formation in LDL, % of Control, 1.5 h” value was 48 % of Control and the “lipid peroxide formation in LDL, % of Control, 3.0 h” value was 93 % of Control. The bioavailability result in data set [6] is “suffers from bioavailability problems”.

Consider `Cc1c(C)c2c(c(C)c1O)CCC(C)(CCCC(C)CCCC(C)CCCC(C)C)O2` (stereo not drawn) [α-Tocopherol], for which, in the data set on hamster LDL (50 mg/kg/d oral), the “lipid peroxide formation in LDL, % of Control, 1.5 h” value is 15 % of Control; the “lipid peroxide formation in LDL, % of Control, 3.0 h” value was 36 % of Control; the “Conj. Dienes lag ratio” value is recorded as over 3. Further, the “LDL Oxd. Inhib. mean lag ratio” value in the data set on LDL stood at 1.01.

Take `Cc1c(O)cc2c(c1C)OC(C)(CCCC(C)CCCC(C)CCCC(C)C)CC2` (centres unmarked) [γ-Tocopherol]: the “LDL Oxd. Inhib. mean lag ratio” value with LDL is 1.17.

For `CC(C)=CCC/C(C)=C/CC/C(C)=C/CCC1(C)CCc2cc(O)c(C)c(C)c2O1` (centres unmarked) [γ-Tocotrienol], in the data set on hamster LDL (50 mg/kg/d oral), the “lipid peroxide formation in LDL, % of Control, 1.5 h” value is on record as 7 % of Control; the “lipid peroxide formation in LDL, % of Control, 3.0 h” value was 67 % of Control; the “Conj. Dienes lag ratio” value was 1.48. Also, the Tot.-C in data set [3] was 76.3 % of Control. Also, the “HMGR Suppression” value in the data set with HMG-CoA reductase [4] is 65% of Control. Besides, the “LDL Oxd. Inhib. mean lag ratio” value in the data set with LDL stood at 1.27. Also, in data set [5], the activity at 10 µM turned out to be 29%.
